Molecular target: T1, GLP-1 Receptor (Homo sapiens, UniProt P43220)
T1 construct: host or cells: HEK293/GLP1R/CRE-LUC (HEK293/CRE-Luc stably expressing GLP-1R)
Assay: GLP-1R agonist cAMP stimulation assay (HEK293/GLP1R/CRE-LUC cells, HTRF cAMP dynamic 2 kit)
Format: cell-based
Details: HEK293/CRE-Luc cell line (HDB), 30 min incubation, read-out: GLP1R cAMP Stimulation DR: EC50 (nM) [Species: Human, Assay Cell Line: HDB]
Experimental: Activation of GLP-1 receptor is known to stimulate cyclic AMP (cAMP) production in cells which indicates primary coupling to the Gαs subunit of the G protein heterotrimeric complex.
To optimize functional activity directed toward Gαs coupling, a HEK293/CRE-Luc cell line developed by HDB stably expressing the GLP-1 Receptor was used. 200×concentration of compound working solutions were prepared (Agilent Technologies Bravo) with ½ log serial dilution in 384-well Echo LDV plate (Labcyte, Cat #LP-0200). 50 nL/well 200×concentration of compound working solutions were moved to 384-well white low volume plate (Greiner, Cat #784075) using Labcyte ECHO550. 1×10^5 cells/mL HEK293/GLP1R/CRE-LUC(HD Biosciences) cell suspensions prepared with assay buffer[DPBS containing 0.5 mM IBMX (Sigma, Cat #15879) and 0.1% BSA (GENVIEW, Cat #FA016-100g)], 10 uL cell suspensions were added to each well of previous generated assay plate which already contains 50n1 compound at 200× concentration using ThermoFisher Multidrop Combi (1000 cells/well). Seal the plate and incubate at 37° C. with 5% CO2 for 30 min.
After incubation the cAMP assay signal was generated using cAMP dynamic 2 Kit (Cisbio). 5 μL cAMP-d2 working solution was added to each well, followed with 5 μL Anti-cAMP antibody-cryptate working solution added to each well using ThermoFisher Multidrop Combi. Incubate at room temperature for 1 hour protected from light. Read the fluorescence at 665 and 615 nm with Reader PerkinElmer EnVision. % Activity=100%×(mean RLU of test sample−mean RLU of vehicle control)/(mean RLU of MAX control−mean RLU of vehicle control))

T1 sequence (P43220 24-463): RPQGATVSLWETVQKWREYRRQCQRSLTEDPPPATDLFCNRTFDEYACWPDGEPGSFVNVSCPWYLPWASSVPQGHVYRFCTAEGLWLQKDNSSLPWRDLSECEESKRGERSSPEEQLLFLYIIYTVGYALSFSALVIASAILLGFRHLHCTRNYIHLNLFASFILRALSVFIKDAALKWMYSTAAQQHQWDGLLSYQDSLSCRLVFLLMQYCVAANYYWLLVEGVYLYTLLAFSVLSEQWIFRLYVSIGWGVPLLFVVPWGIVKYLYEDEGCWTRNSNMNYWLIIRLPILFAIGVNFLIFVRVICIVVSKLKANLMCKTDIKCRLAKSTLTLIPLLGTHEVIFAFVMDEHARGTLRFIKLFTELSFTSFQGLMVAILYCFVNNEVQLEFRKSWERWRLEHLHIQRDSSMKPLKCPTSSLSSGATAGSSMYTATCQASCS

| SMILES | EC50 [nM] |
| --- | --- |
| CCP(=O)(CC)c1ccc(-n2ccn(-c3c(-c4cc(C)c(F)c(C)c4)nn4c3C(C)N(C(=O)c3cc5cc(C6CCOCC6)ccc5n3[C@@]3(c5noc(=O)[nH]5)C[C@@H]3C)CC4)c2=O)cc1NC (mixture of isomers) [Compound 108a, 3-((1S,2S)-1-(2-(3-(3-(4-(diethylphosphoryl)-3-(methylamino)phenyl)-2-oxo-2,3-dihydro-1H-imidazol-1-yl)-2-(4-fluoro-3,5-dimethylphenyl)-4-methyl-4,5,6,7-tetrahydropyrazolo[1,5-a]pyrazine-5-carbonyl)-5-(tetrahydro-2H-pyran-4-yl)-1H-indol-1-yl)-2-methylcyclopropyl)-1,2,4-oxadiazol-5(4H)-one] | 0.1 |
| Cc1cc(-c2nn3c(c2-n2ccn(-c4ccc5c(cnn5C)c4F)c2=O)C(C)N(C(=O)c2cc4cc(C5CCOCC5)ccc4n2[C@@]2(c4noc(=O)[nH]4)C[C@@H]2C)CC3)cc(C)c1F (single isomer, unassigned) [Compound 110a] | 0.13 |
| CCP(=O)(CC)c1ccc(-n2ccn(-c3c(-c4cc(C)c(F)c(C)c4)nn4c3C(C)N(C(=O)c3cc5cc(C6CCOCC6)ccc5n3[C@@]3(c5noc(=O)[nH]5)C[C@@H]3C)CC4)c2=O)cc1NC (single isomer, unassigned) [Compound 111a] | 0.042 |
| Cc1cc(-c2nn3c(c2-n2ccn(-c4ccc5c(cnn5C)c4)c2=O)CN(C(=O)c2cc4cc(C5CCOCC5)ccc4n2C2(c4noc(=O)[nH]4)CC2)CC3)cc(C)c1F [Compound 101, 3-(1-(2-(2-(4-fluoro-3,5-dimethylphenyl)-3-(3-(1-methyl-1H-indazol-5-yl)-2-oxo-2,3-dihydro-1H-imidazol-1-yl)-4,5,6,7-tetrahydropyrazolo[1,5-a]pyrazine-5-carbonyl)-5-(tetrahydro-2H-pyran-4-yl)-1H-indol-1-yl)cyclopropyl)-1,2,4-oxadiazol-5(4H)-one] | 3.41 |
| Cc1cc(-c2nn3c(c2-n2ccn(-c4ccc5c(cnn5C)c4)c2=O)CN(C(=O)c2cc4cc(C5CCOCC5)ccc4n2C2(c4noc(=O)[nH]4)CCC2)CC3)cc(C)c1F [Compound 102, 3-(1-(2-(2-(4-fluoro-3,5-dimethylphenyl)-3-(3-(1-methyl-1H-indazol-5-yl)-2-oxo-2,3-dihydro-1H-imidazol-1-yl)-4,5,6,7-tetrahydropyrazolo[1,5-a]pyrazine-5-carbonyl)-5-(tetrahydro-2H-pyran-4-yl)-1H-indol-1-yl)cyclobutyl)-1,2,4-oxadiazol-5(4H)-one] | 3300 |
| Cc1cc(-c2nn3c(c2-n2ccn(-c4ccc5c(cnn5C)c4)c2=O)C(C)N(C(=O)c2cc4cc(C5CCOCC5)ccc4n2C2(c4noc(=O)[nH]4)CC2)CC3)cc(C)c1F (stereo not shown) [Compound 103, 3-(1-(2-(2-(4-fluoro-3,5-dimethylphenyl)-4-methyl-3-(3-(1-methyl-1H-indazol-5-yl)-2-oxo-2,3-dihydro-1H-imidazol-1-yl)-4,5,6,7-tetrahydropyrazolo[1,5-a]pyrazine-5-carbonyl)-5-(tetrahydro-2H-pyran-4-yl)-1H-indol-1-yl)cyclopropyl)-1,2,4-oxadiazol-5(4H)-one] | 0.29 |
| CCP(=O)(CC)c1ccc(-n2ccn(-c3c(-c4cc(C)c(F)c(C)c4)nn4c3C(C)N(C(=O)c3cc5cc(C6CCOCC6)ccc5n3C3(c5noc(=O)[nH]5)CC3)CC4)c2=O)cc1NC (stereo not shown) [Compound 104, 3-(1-(2-(3-(3-(4-(diethylphosphoryl)-3-(methylamino)phenyl)-2-oxo-2,3-dihydro-1H-imidazol-1-yl)-2-(4-fluoro-3,5-dimethylphenyl)-4-methyl-4,5,6,7-tetrahydropyrazolo[1,5-a]pyrazine-5-carbonyl)-5-(tetrahydro-2H-pyran-4-yl)-1H-indol-1-yl)cyclopropyl)-1,2,4-oxadiazol-5(4H)-one] | 0.18 |
| Cc1cc(-c2nn3c(c2-n2ccn(-c4ccc5c(cnn5C)c4)c2=O)CN(C(=O)c2cc4cc(C5CCOCC5)ccc4n2[C@@]2(c4noc(=O)[nH]4)C[C@@H]2C)CC3)cc(C)c1F [Compound 105a, 3-((1S,2S)-1-(2-(2-(4-fluoro-3,5-dimethylphenyl)-3-(3-(1-methyl-1H-indazol-5-yl)-2-oxo-2,3-dihydro-1H-imidazol-1-yl)-4,5,6,7-tetrahydropyrazolo[1,5-a]pyrazine-5-carbonyl)-5-(tetrahydro-2H-pyran-4-yl)-1H-indol-1-yl)-2-methylcyclopropyl)-1,2,4-oxadiazol-5(4H)-one] | 1.86 |
| Cc1cc(-c2nn3c(c2-n2ccn(-c4ccc5c(cnn5C)c4)c2=O)CN(C(=O)c2cc4cc(C5CCOCC5)ccc4n2[C@@]2(C(=O)O)C[C@@H]2C)CC3)cc(C)c1F [Compound 106a, (1S,2S)-1-(2-(2-(4-fluoro-3,5-dimethylphenyl)-3-(3-(1-methyl-1H-indazol-5-yl)-2-oxo-2,3-dihydro-1H-imidazol-1-yl)-4,5,6,7-tetrahydropyrazolo[1,5-a]pyrazine-5-carbonyl)-5-(tetrahydro-2H-pyran-4-yl)-1H-indol-1-yl)-2-methylcyclopropanecarboxylic acid] | 113 |
| Cc1cc(-c2nn3c(c2-n2ccn(-c4ccc5c(cnn5C)c4F)c2=O)C(C)N(C(=O)c2cc4cc(C5CCOCC5)ccc4n2[C@@]2(c4noc(=O)[nH]4)C[C@@H]2C)CC3)cc(C)c1F (stereo partly drawn) [Compound 109a, 3-((1S,2S)-1-(2-(3-(3-(4-fluoro-1-methyl-1H-indazol-5-yl)-2-oxo-2,3-dihydro-1H-imidazol-1-yl)-2-(4-fluoro-3,5-dimethylphenyl)-4-methyl-4,5,6,7-tetrahydropyrazolo[1,5-a]pyrazine-5-carbonyl)-5-(tetrahydro-2H-pyran-4-yl)-1H-indol-1-yl)-2-methylcyclopropyl)-1,2,4-oxadiazol-5(4H)-one] | 0.18 |

Second part, the compound after the results:

| EC50 [nM] | SMILES |
| --- | --- |
| 42 | CCP(=O)(CC)c1ccc(-n2ccn(-c3c(-c4cc(C)c(F)c(C)c4)nn4c3C(C)N(C(=O)c3cc5cc(C6CCOCC6)ccc5n3[C@@]3(c5noc(=O)[nH]5)C[C@@H]3C)CC4)c2=O)cc1NC (single isomer, unassigned) [Compound 112a] |
| 0.17 | CCP(=O)(CC)c1ccc(-n2ccn(-c3c(-c4cc(C)c(F)c(C)c4)nn4c3C(C)N(C(=O)c3cc5cc([C@H]6CCOC(C)(C)C6)ccc5n3[C@@]3(c5noc(=O)[nH]5)C[C@@H]3C)CC4)c2=O)cc1NC (single isomer, unassigned) [Compound 113a] |
| 0.068 | CCP(=O)(CC)c1ccc(-n2ccn(-c3c(-c4cc(C)c(F)c(C)c4)nn4c3C(C)N(C(=O)c3cc5cc(N6CCOCC6)ccc5n3[C@@]3(c5noc(=O)[nH]5)C[C@@H]3C)CC4)c2=O)cc1NC (single isomer, unassigned) [Compound 114a] |
| 0.15 | CCP(=O)(CC)c1ccc(-n2ccn(-c3c(-c4cc(C)c(F)c(C)c4)nn4c3C(C)N(C(=O)c3cc5cc(N6CCOC(C)(C)C6)ccc5n3[C@@]3(c5noc(=O)[nH]5)C[C@@H]3C)CC4)c2=O)cc1NC (single isomer, unassigned) [Compound 115a] |
| 0.42 | CCP(=O)(CC)c1ccc(-n2ccn(-c3c(-c4cc(C)c(F)c(C)c4)nn4c3C(C)N(C(=O)c3cc5cc(C6CCC(F)(F)CC6)ccc5n3[C@@]3(c5noc(=O)[nH]5)C[C@@H]3C)CC4)c2=O)cc1NC (single isomer, unassigned) [Compound 116a] |
| 0.07 | Cc1cc(-c2nn3c(c2-n2ccn(-c4ccc5c(cnn5C)c4F)c2=O)C(C)N(C(=O)c2cc4cc([C@H]5CCOC(C)(C)C5)ccc4n2[C@@]2(c4noc(=O)[nH]4)C[C@@H]2C)CC3)cc(C)c1F (single isomer, unassigned) [Compound 117a] |

Same assay, conditions: HEK293/CRE-Luc cell line (HDB), 30 min incubation, read-out: GLP1R cAMP Stimulation DR: pEC50 (M) [Species: Human, Assay Cell Line: HDB] (converted)

| EC50 [nM] | SMILES |
| --- | --- |
| 0.0316 | CNc1cc(-n2ccn(-c3c(-c4cc(C)c(F)c(C)c4)nn4c3C(C)N(C(=O)c3cc5cc(C6CCOCC6)ccc5n3[C@@]3(c5noc(=O)[nH]5)C[C@@H]3C)CC4)c2=O)ccc1P(C)(C)=O (single isomer, unassigned) [Compound 118a] |
| 3.31 | Cc1cc(-c2nn3c(c2-n2ccn(-c4ccc5c(cnn5C)c4)c2=O)CN(C(=O)c2cc4cc(C5CCOCC5)ccc4n2C2(c4noc(=O)[nH]4)CC2)CC3)cc(C)c1F [Compound 101, 3-(1-(2-(2-(4-fluoro-3,5-dimethylphenyl)-3-(3-(1-methyl-1H-indazol-5-yl)-2-oxo-2,3-dihydro-1H-imidazol-1-yl)-4,5,6,7-tetrahydropyrazolo[1,5-a]pyrazine-5-carbonyl)-5-(tetrahydro-2H-pyran-4-yl)-1H-indol-1-yl)cyclopropyl)-1,2,4-oxadiazol-5(4H)-one] |
| 2190 | Cc1cc(-c2nn3c(c2-n2ccn(-c4ccc5c(cnn5C)c4)c2=O)CN(C(=O)c2cc4cc(C5CCOCC5)ccc4n2C2(c4noc(=O)[nH]4)CCC2)CC3)cc(C)c1F [Compound 102, 3-(1-(2-(2-(4-fluoro-3,5-dimethylphenyl)-3-(3-(1-methyl-1H-indazol-5-yl)-2-oxo-2,3-dihydro-1H-imidazol-1-yl)-4,5,6,7-tetrahydropyrazolo[1,5-a]pyrazine-5-carbonyl)-5-(tetrahydro-2H-pyran-4-yl)-1H-indol-1-yl)cyclobutyl)-1,2,4-oxadiazol-5(4H)-one] |

— patent US12595264B2, “Heterocyclic GLP-1 agonists” (Gasherbrum Bio, Inc., priority 2020, dated 2026)
